Test results as given in patent US7157430B2, “(Substituted)acyl dipeptidyl inhibitors of the ICE/CED-3 family of cysteine proteases” (Idun Pharmaceuticals, Inc., priority 1998, dated 2007).

Key:
Type in all cases: biochemical
Conditions in all cases: continuous assay 60 min, reaction initiated by adding enzyme
mICE = target: T1, mICE (Mus musculus, UniProt P29452); assay: Dissociation constant Ki and irreversible rate constant k3 for irreversible inhibitors, ICE
T1 sequence (P29452 123-296 limits assumed): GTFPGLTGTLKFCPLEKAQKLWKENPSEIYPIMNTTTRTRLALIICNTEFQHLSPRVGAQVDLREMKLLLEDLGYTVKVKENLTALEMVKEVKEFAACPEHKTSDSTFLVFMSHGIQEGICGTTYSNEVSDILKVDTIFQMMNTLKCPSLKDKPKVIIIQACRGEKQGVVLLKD
T1 sequence (P29452 315-402 limits assumed): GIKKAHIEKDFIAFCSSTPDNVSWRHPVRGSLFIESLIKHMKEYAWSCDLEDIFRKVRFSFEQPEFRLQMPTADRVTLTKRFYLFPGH
From the text: (§1) For the irreversible inhibition of a ICE/ced-3 Family Protease enzyme with a competitive irreversible inhibitor; using the model represented by the following formulas: […]
(§2) The product formation at time t may be expressed as:
(§3) [formula] where E, I, EI and E-I denote the active enzyme, inhibitor, non-covalent enzyme-inhibitor complex and covalent enzyme-inhibitor adduct, respectively. The Ki value is the overall dissociation constant of the reversible binding steps, and k3 is the irreversible rate constant. The [S] and Ks values are the substate concentration and dissociation constant of the substrate bound to the enzyme, respectively. [E]^T is the total enzyme concentration.
(§4) The above equations were used to determine the Ki and k3 values of a given inhibitor bound to a ICE/ced-3 family protease. Thus, a continuous assay was run for sixty minutes at various concentrations of the inhibitor and the substrate. The assay was formulated essentially the same as described above for generating the data in Table 1, except that the reaction was initiated by adding the enzyme to the substrate-inhibitor mixture. The Ki and k3 values were obtained by simulating the product AMC formation as a function of time according to Equation 1.
(§5) The reference compound for this assay was Cbz-ValAlaAsp-CH2F and the values are denoted in Table 2 as “Reference”. The Ki values in Table 2 are in micromolar (μM). The k3/Ki values are in moles^−1 seconds^−1 (M^−1s^−1).

MCH-2 = target: T2, MCH-2 (Homo sapiens, UniProt P55212); assay: Dissociation constant Ki and irreversible rate constant k3 for irreversible inhibitors, Mch2
T2 sequence (P55212 24-179 limits assumed): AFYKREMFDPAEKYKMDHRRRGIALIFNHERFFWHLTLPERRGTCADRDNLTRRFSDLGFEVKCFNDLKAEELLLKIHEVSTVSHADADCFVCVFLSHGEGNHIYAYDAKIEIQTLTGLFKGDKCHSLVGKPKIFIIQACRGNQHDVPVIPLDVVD
T2 sequence (P55212 194-293 limits assumed): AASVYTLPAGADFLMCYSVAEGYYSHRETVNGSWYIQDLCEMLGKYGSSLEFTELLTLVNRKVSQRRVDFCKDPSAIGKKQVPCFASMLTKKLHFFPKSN
From the text: as §1, §2, §3, §4, §5

MCH-5 = MCH-5 (Homo sapiens, UniProt Q14790); assay: Dissociation constant Ki and irreversible rate constant k3 for irreversible inhibitors, Mch5
MCH-5, sequence (Q14790 217-374 limits assumed, species assumed): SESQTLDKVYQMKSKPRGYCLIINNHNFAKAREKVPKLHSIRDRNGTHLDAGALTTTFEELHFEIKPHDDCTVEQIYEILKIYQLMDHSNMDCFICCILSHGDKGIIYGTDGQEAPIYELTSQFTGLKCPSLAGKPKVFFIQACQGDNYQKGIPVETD
MCH-5, sequence (Q14790 385-479 limits assumed, species assumed): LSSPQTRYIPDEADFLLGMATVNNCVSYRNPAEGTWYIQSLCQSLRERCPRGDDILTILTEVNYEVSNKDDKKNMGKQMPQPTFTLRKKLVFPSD
From the text: as §1, §2, §3, §4, §5

CPP32 = target: T3, CPP32 (Homo sapiens, UniProt P42574); assay: Dissociation constant Ki and irreversible rate constant k3 for irreversible inhibitors, CPP32
T3 sequence (P42574 29-175 limits assumed): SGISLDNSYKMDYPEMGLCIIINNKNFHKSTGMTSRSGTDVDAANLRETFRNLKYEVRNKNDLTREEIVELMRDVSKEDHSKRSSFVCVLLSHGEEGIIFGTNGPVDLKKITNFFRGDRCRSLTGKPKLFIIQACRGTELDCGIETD
T3 sequence (P42574 176-277 limits assumed): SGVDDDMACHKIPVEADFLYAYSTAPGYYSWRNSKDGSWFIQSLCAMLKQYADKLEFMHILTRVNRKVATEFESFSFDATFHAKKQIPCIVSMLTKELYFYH
From the text: as §1, §2, §3, §4, §5

SMILES: CC(C)[C@H](NC(=O)COc1cccc2ccccc12)C(=O)N[C@@H](CC(=O)O)C(=O)COn1nnc2ccccc2c1=O [Example 62, (3S)-3-[N-((1-Naphthyloxy)Acetyl)Valinyl]Amino-5-(1′,2′,3′-Benzotriazin-4′(3H)-on-3′-yloxy)-4-Oxopentanoic Acid]
- Ki (mICE): 253 nM
- mICE k3/Ki (mICE): 45,400 M^−1s^−1
- Ki (MCH-2): 42 nM
- MCH-2 k3/Ki (MCH-2): 44,000 M^−1s^−1
- Ki (MCH-5): 48 nM
- MCH-5 k3/Ki (MCH-5): 18,200 M^−1s^−1
- CPP32 k3/Ki (CPP32): 169,000 M^−1s^−1
- Ki (CPP32): 52 nM

SMILES: CC(C)[C@H](NC(=O)COc1cccc2ccccc12)C(=O)N[C@@H](CC(=O)O)C(=O)COC(=O)c1c(Cl)cccc1Cl [Example 63]
- Ki (mICE): 79 nM
- mICE k3/Ki (mICE): 52,100 M^−1s^−1
- Ki (MCH-2): 12 nM
- MCH-2 k3/Ki (MCH-2): 56,900 M^−1s^−1
- Ki (MCH-5): 12 nM
- MCH-5 k3/Ki (MCH-5): 17,000 M^−1s^−1
- CPP32 k3/Ki (CPP32): 725,000 M^−1s^−1
- Ki (CPP32): 12 nM

SMILES: CC(C)[C@H](NC(=O)COc1cccc2ccccc12)C(=O)N[C@@H](CC(=O)O)C(=O)COc1ccccc1 [Example 64]
- Ki (mICE): 262 nM
- mICE k3/Ki (mICE): 3,630 M^−1s^−1
- Ki (MCH-2): 153 nM
- MCH-2 k3/Ki (MCH-2): 2,400 M^−1s^−1
- Ki (MCH-5): 235 nM
- MCH-5 k3/Ki (MCH-5): 4,260 M^−1s^−1
- CPP32 k3/Ki (CPP32): 19,200 M^−1s^−1
- Ki (CPP32): 62 nM

SMILES: CC(C)[C@H](NC(=O)COc1cccc2ccccc12)C(=O)N[C@@H](CC(=O)O)C(=O)COc1ccccc1F [Example 65]
- Ki (mICE): 305 nM
- mICE k3/Ki (mICE): 6,020 M^−1s^−1
- Ki (MCH-2): 336 nM
- MCH-2 k3/Ki (MCH-2): 0 M⁻¹ s⁻¹
- Ki (MCH-5): 354 nM
- MCH-5 k3/Ki (MCH-5): 230 M⁻¹ s⁻¹
- CPP32 k3/Ki (CPP32): 26,800 M^−1s^−1
- Ki (CPP32): 102 nM

SMILES: CC(C)[C@H](NC(=O)COc1cccc2ccccc12)C(=O)N[C@@H](CC(=O)O)C(=O)COc1cccc(F)c1 [Example 66]
- Ki (mICE): 442 nM
- mICE k3/Ki (mICE): 2,700 M^−1s^−1
- Ki (MCH-2): 344 nM
- MCH-2 k3/Ki (MCH-2): 48 M⁻¹ s⁻¹
- Ki (MCH-5): 406 nM
- MCH-5 k3/Ki (MCH-5): 460 M⁻¹ s⁻¹
- CPP32 k3/Ki (CPP32): 17,800 M^−1s^−1
- Ki (CPP32): 121 nM

SMILES: CC(C)[C@H](NC(=O)COc1cccc2ccccc12)C(=O)N[C@@H](CC(=O)O)C(=O)COc1ccc(F)cc1 [Example 67]
- Ki (mICE): 218 nM
- mICE k3/Ki (mICE): 9,120 M^−1s^−1
- Ki (MCH-2): 203 nM
- MCH-2 k3/Ki (MCH-2): 0 M⁻¹ s⁻¹
- Ki (MCH-5): 255 nM
- MCH-5 k3/Ki (MCH-5): 700 M⁻¹ s⁻¹
- CPP32 k3/Ki (CPP32): 8,560 M^−1s^−1
- Ki (CPP32): 33 nM

SMILES: CC(C)[C@H](NC(=O)COc1cccc2ccccc12)C(=O)N[C@@H](CC(=O)O)C(=O)COc1cccc(F)c1F [Example 68]
- Ki (mICE): 355 nM
- mICE k3/Ki (mICE): 14,800 M^−1s^−1
- Ki (MCH-2): 383 nM
- MCH-2 k3/Ki (MCH-2): 1,610 M^−1s^−1
- Ki (MCH-5): 821 nM
- MCH-5 k3/Ki (MCH-5): 200 M⁻¹ s⁻¹
- CPP32 k3/Ki (CPP32): 28,800 M^−1s^−1
- Ki (CPP32): 110 nM

SMILES: CC(C)[C@H](NC(=O)COc1cccc2ccccc12)C(=O)N[C@@H](CC(=O)O)C(=O)COc1ccc(F)cc1F [Example 69]
- Ki (mICE): 615 nM
- mICE k3/Ki (mICE): 8,400 M^−1s^−1
- Ki (MCH-2): 951 nM
- MCH-2 k3/Ki (MCH-2): 0 M⁻¹ s⁻¹
- Ki (MCH-5): 1300 nM
- MCH-5 k3/Ki (MCH-5): 630 M⁻¹ s⁻¹
- CPP32 k3/Ki (CPP32): 21,700 M^−1s^−1
- Ki (CPP32): 92 nM

SMILES: CC(C)[C@H](NC(=O)COc1cccc2ccccc12)C(=O)N[C@@H](CC(=O)O)C(=O)COc1cc(F)ccc1F [Example 70]
- Ki (mICE): 399 nM
- mICE k3/Ki (mICE): 12,100 M^−1s^−1
- Ki (MCH-2): 357 nM
- MCH-2 k3/Ki (MCH-2): 1,330 M^−1s^−1
- Ki (MCH-5): 760 nM
- MCH-5 k3/Ki (MCH-5): 480 M⁻¹ s⁻¹
- CPP32 k3/Ki (CPP32): 49,000 M^−1s^−1
- Ki (CPP32): 104 nM

SMILES: CC(C)[C@H](NC(=O)COc1cccc2ccccc12)C(=O)N[C@@H](CC(=O)O)C(=O)COc1c(F)cccc1F [Example 71]
- Ki (mICE): 193 nM
- mICE k3/Ki (mICE): 53,900 M^−1s^−1
- Ki (MCH-2): 38 nM
- MCH-2 k3/Ki (MCH-2): 9,980 M^−1s^−1
- Ki (MCH-5): 120 nM
- MCH-5 k3/Ki (MCH-5): 9,100 M^−1s^−1
- CPP32 k3/Ki (CPP32): 200,000 M^−1s^−1
- Ki (CPP32): 39 nM

SMILES: CC(C)[C@H](NC(=O)COc1cccc2ccccc12)C(=O)N[C@@H](CC(=O)O)C(=O)COc1ccc(F)c(F)c1 [Example 72]
- Ki (mICE): 718 nM
- mICE k3/Ki (mICE): 1,620 M^−1s^−1
- Ki (MCH-2): 1160 nM
- MCH-2 k3/Ki (MCH-2): 90 M⁻¹ s⁻¹
- Ki (MCH-5): 1040 nM
- MCH-5 k3/Ki (MCH-5): 120 M⁻¹ s⁻¹
- CPP32 k3/Ki (CPP32): 6,460 M^−1s^−1
- Ki (CPP32): 90 nM

SMILES: CC(C)[C@H](NC(=O)COc1cccc2ccccc12)C(=O)N[C@@H](CC(=O)O)C(=O)COc1cc(F)cc(F)c1 [Example 73]
- Ki (mICE): 592 nM
- mICE k3/Ki (mICE): 2,170 M^−1s^−1
- Ki (MCH-2): 862 nM
- MCH-2 k3/Ki (MCH-2): 110 M⁻¹ s⁻¹
- Ki (MCH-5): 1030 nM
- MCH-5 k3/Ki (MCH-5): 150 M⁻¹ s⁻¹
- CPP32 k3/Ki (CPP32): 9,240 M^−1s^−1
- Ki (CPP32): 106 nM

SMILES: CC(C)[C@H](NC(=O)COc1cccc2ccccc12)C(=O)N[C@@H](CC(=O)O)C(=O)COc1ccc(F)c(F)c1F [Example 74]
- Ki (mICE): 280 nM
- mICE k3/Ki (mICE): 11,900 M^−1s^−1
- Ki (MCH-2): 1250 nM
- MCH-2 k3/Ki (MCH-2): 250 M⁻¹ s⁻¹
- Ki (MCH-5): 1080 nM
- MCH-5 k3/Ki (MCH-5): 770 M⁻¹ s⁻¹
- CPP32 k3/Ki (CPP32): 35,800 M^−1s^−1
- Ki (CPP32): 135 nM

SMILES: CC(C)[C@H](NC(=O)COc1cccc2ccccc12)C(=O)N[C@@H](CC(=O)O)C(=O)COc1cc(F)cc(F)c1F [Example 75]
- Ki (mICE): 147 nM
- mICE k3/Ki (mICE): 14,700 M^−1s^−1
- Ki (MCH-2): 221 nM
- MCH-2 k3/Ki (MCH-2): 1,510 M^−1s^−1
- Ki (MCH-5): 794 nM
- MCH-5 k3/Ki (MCH-5): 1,470 M^−1s^−1
- CPP32 k3/Ki (CPP32): 60,100 M^−1s^−1
- Ki (CPP32): 61 nM

SMILES: CC(C)[C@H](NC(=O)COc1cccc2ccccc12)C(=O)N[C@@H](CC(=O)O)C(=O)COc1c(F)ccc(F)c1F [Example 76]
- Ki (mICE): 90 nM
- mICE k3/Ki (mICE): 47,100 M^−1s^−1
- Ki (MCH-2): 58 nM
- MCH-2 k3/Ki (MCH-2): 81,700 M^−1s^−1
- Ki (MCH-5): 81 nM
- MCH-5 k3/Ki (MCH-5): 17,000 M^−1s^−1
- CPP32 k3/Ki (CPP32): 188,000 M^−1s^−1
- Ki (CPP32): 63 nM
